Test results published in patent US20190010167A1, “INHIBITORS OF THE MENIN-MLL INTERACTION” (Vitae Pharmaceuticals, Inc., priority 2015, published 2019).

Molecular target: T1, menin/MLL (Gal4-Menin and MLL1-46-VP16) in HEK293 cells (Homo sapiens, UniProt O00255)
T1 construct: expressed in transfected cells; host or cells: HEK293 (ATCC)
Assay: Mammalian cellular two-hybrid assay in HEK293 cells (Assay 2, cell assay)
Format: cell-based
Settings: Gal4-Menin/MLL1-46-VP16 two-hybrid, NanoLuc luciferase reporter, 16-18 h
Method: Potencies of inhibitor compounds against menin/MLL were tested in a mammalian cellular two-hybrid assay system. HEK293 cells (American Type Culture Collection (ATCC); Manassas, Va.) were co-transfected with three plasmids: one encoding Gal4-Menin (200 ng per 10^6 cells), another encoding MLL1-46-VP16 (100 ng per 10^6 cells), and a reporter plasmid pNL3.3-4×UAS (500 ng per 10^6 cells) encoding secreted NanoLuc® luciferase (Promega) with the upstream 4×UAS repeats for Gal4 binding. Transfection was performed in Opti-MEM® media using Lipofectamine® LTX with Plus™ Reagent (ThermoFisher Scientific) according to manufacturer's protocol. Cells were incubated with transfection reagents at 37° C. 5% CO2 for 5-6 h, harvested by trypsinization and centrifugation at 300×g for 5 min and resuspended in Gibco® DMEM media (phenol red-free, no antibiotics) containing 10% delipidated fetal bovine serum (FBS) (ThermoFisher Scientific). Concentration of cells in the media was adjusted to 3.5×10^5 cells/ml, and 100 μl of the cell suspension was dispensed into each well of 96-well Costar™ black clear bottom cell culture plates (Fisher Scientific). Tested compounds were added as 100 μL of 2× solutions in the media. Final concentration of DMSO was 0.1% in all wells. The cells were incubated with tested compounds at 37° C. 5% CO2 for 16-18 h. At the end of the incubation, 40 μL of the conditioned media from each well was transferred into each well of 96-well Costar™ black half-area plates (Fisher Scientific), to which 40 μl of 2× reconstituted NanoGlo® luciferase assay reagent (Promega) was added and thoroughly mixed on a microshaker for 2-3 min. Remaining media in the culture plates was removed by emptying the wells and blotting the plates on filter paper. The cells were lysed with 1× CellTiter-Glo® Luminescent Cell Viability Assay reagent (Promega) for assessing toxicity of the tested compounds. Both, Nano-Glo® and CellTiter-Glo® luminescence intensities were measured on EnVision® multilabel plate reader (PerkinElmer). Percent inhibition values were calculated based on Nano-Glo® luciferase activity observed with the tested compounds vs. DMSO control and commercially available menin inhibitor MI-2-2 (4-(4-(5,5-Dimethyl-4,5-dihydrothiazol-2-yl)piperazin-1-yl)-6-(2,2,2-trifluoroethyl)thieno[2,3-d]pyrimidine) (EMD Millipore, Cat. No. 444825) incubated with cells at 5 μM. These percent inhibition values were regressed against compound concentrations in the assay using non-linear 4-parameter logit curve fitting (XLFit, IDBS). Half maximal inhibitory concentrations (IC50) were calculated as the parameters of the fit corresponding to the inflection points on semi-logarithmic dose-response curves.

T1 sequence (P04386 1-147 partner limits assumed, species assumed, one chain of several): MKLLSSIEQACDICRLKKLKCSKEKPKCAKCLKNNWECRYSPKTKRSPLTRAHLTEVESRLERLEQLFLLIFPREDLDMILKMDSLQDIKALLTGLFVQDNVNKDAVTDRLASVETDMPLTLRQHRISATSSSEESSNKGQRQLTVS

IC50	Compound
≥ 1000 nM	O=c1[nH]c2ccc(CN3CCC4(CCN(c5ncnc6sc(CC(F)(F)F)cc56)C4)C3)cc2n1CCO (centres unmarked) [Example 120]
100 to 1000 nM	COC1CCC(CN2CC3(C2)CN(c2ncnc4sc(CC(F)(F)F)cc24)C3)CC1 (centres unmarked) [Example 75, 4-(6-((4-methoxycyclohexyl)methyl)-2,6-diazaspiro[3.3]heptan-2-yl)-6-(2,2,2-trifluoroethyl)thieno[2,3-d]pyrimidine]
100 to 1000 nM	CC(=O)Nc1ccc(CN2CCC3(CCN(c4ncnc5sc(CC(F)(F)F)cc45)C3)C2)cc1 (centres unmarked) [Example 34, N-(4-((7-(6-(2,2,2-trifluoroethyl)thieno[2,3-d]pyrimidin-4-yl)-2,7-diazaspiro[4.4]nonan-2-yl)methyl)phenyl)acetamide]

Molecular target: T2, wild-type menin / MLL-AF9 fusion protein (Homo sapiens, UniProt O00255)
T2 construct: made in house; host or cells: E. coli (menin); HEK293 cleared lysate (MLL-AF9-FLAG)
T2 sequence (O00255 1-610): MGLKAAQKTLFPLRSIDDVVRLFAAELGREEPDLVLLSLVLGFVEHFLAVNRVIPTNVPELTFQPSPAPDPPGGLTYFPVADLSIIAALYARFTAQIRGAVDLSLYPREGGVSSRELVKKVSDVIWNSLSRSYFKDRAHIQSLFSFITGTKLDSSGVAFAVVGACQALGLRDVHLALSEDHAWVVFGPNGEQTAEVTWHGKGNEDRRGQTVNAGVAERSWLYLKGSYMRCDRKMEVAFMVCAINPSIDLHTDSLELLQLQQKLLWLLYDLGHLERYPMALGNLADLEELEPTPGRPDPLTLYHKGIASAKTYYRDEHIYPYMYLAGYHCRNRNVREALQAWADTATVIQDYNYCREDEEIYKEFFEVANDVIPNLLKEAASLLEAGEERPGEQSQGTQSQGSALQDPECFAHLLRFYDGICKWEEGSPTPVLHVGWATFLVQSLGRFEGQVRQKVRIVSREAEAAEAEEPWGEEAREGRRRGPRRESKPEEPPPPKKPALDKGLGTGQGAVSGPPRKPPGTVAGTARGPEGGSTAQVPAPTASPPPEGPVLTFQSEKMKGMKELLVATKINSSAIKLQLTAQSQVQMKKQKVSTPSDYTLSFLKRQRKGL
Assay: AlphaLISA menin/MLL binding assay, wild-type menin (Assay 1)
Settings: biotinylated wild-type menin 5 nM, MLL-AF9-FLAG lysate
Method: Potencies of inhibitor compounds against menin/MLL binding were assessed by AlphaLISA assay using biotinylated (1) wild-type menin or (2) mutated menin (described in Nature (2012) Vol. 482, pp. 542-548) and MLL-AF9 fusion protein bearing a FLAG epitope at its C-terminus. Menin proteins were expressed in E. coli and covalently modified with biotin using EZ-Link™ Sulfo-NHS-Biotin (ThermoFisher Cat. No. 21217) according to manufacturer's protocol. MLL1-1,396 fused to AF91-92 and the C-terminal FLAG peptide was expressed in HEK293 cells and used as a lysate cleared at 21,000×g for 10 min.
Compounds (2 μL of solutions in DMSO) were dispensed in white 96-well half-area plates (Corning Cat. No. 3693) and incubated for 30 min at RT with 5 nM biotinylated menin and appropriate amount of MLL-AF9-FLAG lysate in 40 μL of 50 mM Tris-HCl buffer pH 7.4 containing 5% (v/v) DMSO, 50 mM NaCl, 0.01% (w/v) bovine serum albumin (BSA) and 1 mM DTT. To this incubation mixture, 40 μl of AlphaLISA anti-FLAG acceptor (PerkinElmer Cat. No. AL112C) and streptavidin donor (PerkinElmer Cat. No. 6760002) beads (10 μg/mL each) was added and incubation continued at RT for 60 min. Alpha (amplified luminescent proximity homogeneous assay) signal was measured on an Envision multi-label plate reader at the end of the incubation. All steps were conducted under dim fluorescent light.
These percent inhibition values were regressed against compound concentrations in the assay using four parameter logit non-linear curve fitting (XLFit, IDBS). The IC50 values were derived from the curve fitting as inflection points on the dose-response curves and are set out in Table 1 below.

IC50	Compound
100 to 1000 nM	COC1CCC(CN2CC3(C2)CN(c2ncnc4sc(CC(F)(F)F)cc24)C3)CC1 (centres unmarked) [Example 75, 4-(6-((4-methoxycyclohexyl)methyl)-2,6-diazaspiro[3.3]heptan-2-yl)-6-(2,2,2-trifluoroethyl)thieno[2,3-d]pyrimidine]
100 to 1000 nM	CCC(C)CN1CCC2(CC1)CN(c1ncnc3sc(CC(F)(F)F)cc13)C2 (centres unmarked) [Example 100, 4-(7-(2-methylbutyl)-2,7-diazaspiro[3.5]nonan-2-yl)-6-(2,2,2-trifluoroethyl)thieno[2,3-d]pyrimidine]
100 to 1000 nM	FC(F)(F)Cc1nc2c(N3CCC4(CCN(Cc5ccccc5)C4)C3)ncnc2s1 (centres unmarked) [Example 82, 7-(7-benzyl-2,7-diazaspiro[4.4]nonan-2-yl)-2-(2,2,2-trifluoroethyl)thiazolo[5,4-d]pyrimidine]
100 to 1000 nM	CC(=O)N[C@H]1CC[C@@H](CN2CCC3(CCN(c4ncnc5sc(CC(F)(F)F)cc45)C3)C2)CC1 (some centres unmarked) [Example 50, N-((1s,4s)-4-((7-(6-(2,2,2-Trifluoroethyl)thieno[2,3-d]pyrimidin-4-yl)-2,7-diazaspiro[4.4]nonan-2-yl)methyl)cyclohexyl)acetamide]
100 to 1000 nM	O=C(C1CCCCN1)N1CCC2(CCN(c3ncnc4sc(CC(F)(F)F)cc34)C2)C1 (centres unmarked) [Example 56, piperidin-2-yl(7-(6-(2,2,2-trifluoroethyl)thieno[2,3-d]pyrimidin-4-yl)-2,7-diazaspiro[4.4]nonan-2-yl)methanone]
100 to 1000 nM	Cc1c(CN2CC3(C2)CN(c2ncnc4sc(CC(F)(F)F)cc24)C3)ccc2[nH]c(C#N)cc12 [Example 67, 4-methyl-5-((6-(6-(2,2,2-trifluoroethyl)thieno[2,3-d]pyrimidin-4-yl)-2,6-diazaspiro[3.3]heptan-2-yl)methyl)-1H-indole-2-carbonitrile]
100 to 1000 nM	FC(F)(F)Cc1cc2c(N3CCC4(CCN(CC5CCC(F)(F)CC5)C4)C3)ncnc2s1 (centres unmarked) [Example 32, 4-(7-((4,4-difluorocyclohexyl)methyl)-2,7-diazaspiro[4.4]nonan-2-yl)-6-(2,2,2-trifluoroethyl)thieno[2,3-d]pyrimidine]

Second part, the molecule before the results:

Compound	IC50
O=c1[nH]c2ccc(CN3CCC4(CCN(c5ncnc6sc(CC(F)(F)F)cc56)C4)C3)cc2n1CCO (centres unmarked) [Example 120]	< 100 nM
CC(=O)Nc1ccc(CN2CCC3(CCN(c4ncnc5sc(CC(F)(F)F)cc45)C3)C2)cc1 (centres unmarked) [Example 34, N-(4-((7-(6-(2,2,2-trifluoroethyl)thieno[2,3-d]pyrimidin-4-yl)-2,7-diazaspiro[4.4]nonan-2-yl)methyl)phenyl)acetamide]	< 100 nM
FC(F)(F)Cc1cc2c(N3CC4(CCN(C[C@H]5CC[C@H](C(F)(F)F)CC5)CC4)C3)ncnc2s1 [Example 102, 6-(2,2,2-trifluoroethyl)-4-(7-(((1r,4r)-4-(trifluoromethyl)cyclohexyl)methyl)-2,7-diazaspiro[3.5]nonan-2-yl)thieno[2,3-d]pyrimidine]	100 to 1000 nM
CS(=O)(=O)Nc1ccc(CN2CCC3(CCN(c4ncnc5sc(CC(F)(F)F)nc45)C3)C2)cc1 (centres unmarked) [Example 84, N-(4-((7-(2-(2,2,2-trifluoroethyl)thiazolo[5,4-d]pyrimidin-7-yl)-2,7-diazaspiro[4.4]nonan-2-yl)methyl)phenyl)methanesulfonamide]	< 100 nM
CC(C)CN1CC2(CCN(c3ccnc4ccc(CC(F)(F)F)cc34)CC2)C1 [Example 85, 4-(2-isobutyl-2,7-diazaspiro[3.5]nonan-7-yl)-6-(2,2,2-trifluoroethyl)quinoline]	≥ 1000 nM
Cc1c(CN2CC3(CCN(c4ncnc5sc(CC(F)(F)F)cc45)CC3)C2)ccc2[nH]c(C#N)cc12 [Example 21, 4-methyl-5-((7-(6-(2,2,2-trifluoroethyl)thieno[2,3-d]pyrimidin-4-yl)-2,7-diazaspiro[3.5]nonan-2-yl)methyl)-1H-indole-2-carbonitrile]	100 to 1000 nM
Cc1c(CN2CC[C@@]3(CCN(c4ccnc5ccc(CC(F)(F)F)cc45)C3)C2)ccc2[nH]c(C#N)cc12 (single isomer, unassigned) [Example 86b, 4-methyl-5-((7-(6-(2,2,2-trifluoroethyl)quinolin-4-yl)-2,7-diazaspiro[4.4]nonan-2-yl)methyl)-1H-indole-2-carbonitrile]	100 to 1000 nM
CC(C)(O)CN1CC2(CCN(c3ncnc4sc(CC(F)(F)F)cc34)CC2)C1 [Example 15, 2-methyl-1-(7-(6-(2,2,2-trifluoroethyl)thieno[2,3-d]pyrimidin-4-yl)-2,7-diazaspiro[3.5]nonan-2-yl)propan-2-ol]	≥ 1000 nM
FC(F)(F)Cc1ccc2ncnc(N3CC4(CN(CC5CCOCC5)C4)C3)c2c1 [Example 91, 4-(6-((tetrahydro-2H-pyran-4-yl)methyl)-2,6-diazaspiro[3.3]heptan-2-yl)-6-(2,2,2-trifluoroethyl)quinazoline]	≥ 1000 nM
O=C1CC2(CCN(Cc3ccc4[nH]c(=O)[nH]c4c3)C2)CN1c1ncnc2sc(CC(F)(F)F)cc12 (centres unmarked) [Example 118, 7-((2-oxo-2,3-dihydro-1H-benzoldlimidazol-5-yl)methyl)-2-(6-(2,2,2-trifluoroethyl)thieno[2,3-d]pyrimidin-4-yl)-2,7-diazaspiro[4.4]nonan-3-one]	100 to 1000 nM
FC(F)(F)Cc1cc2c(N3CCC4(CN(Cc5ccccc5)C4)C3)ncnc2s1 [Example 111, 4-(2-benzyl-2,6-diazaspiro[3.4]octan-6-yl)-6-(2,2,2-trifluoroethyl)thieno[2,3-d]pyrimidine]	100 to 1000 nM
CC(C)N1CC2(CCN(c3ncnc4sc(CC(F)(F)F)cc34)CC2)C1 [Example 3, 4-(2-isopropyl-2,7-diazaspiro[3.5]nonan-7-yl)-6-(2,2,2-trifluoroethyl)thieno[2,3-d]pyrimidine]	≥ 1000 nM
Cc1c(CN2CC3(CCN(c4ncnc5sc(CC(F)(F)F)cc45)C3)C2)ccc2[nH]c(C#N)cc12 [Example 112, 4-methyl-5-((6-(6-(2,2,2-trifluoroethyl)thieno[2,3-d]pyrimidin-4-yl)-2,6-diazaspiro[3.4]octan-2-yl)methyl)-1H-indole-2-carbonitrile]	100 to 1000 nM
